Experimental data taken from patent US20210236465A1, “METHODS AND COMPOSITIONS FOR TREATING HETEROTOPIC OSSIFICATION” (President and Fellows of Harvard College, priority 2019, published 2021).

Tests used:
[1] = test system: Gnas^-/- SMP cells; assay: Osteoblast differentiation (ALP) of Gnas^-/- SMP cells in osteogenic medium; format: cell-based, mouse
Procedure: (§1) For ALP staining, cells were fixed in 4% PFA for 20 minutes, washed with PBS for three times, then stained with 1-Step NBT/BCIP (Thermo, 34042) for 30 minutes and washed by PBS. There were three biological replicates for each group. ALP staining was quantified as previously described. Cells were scraped into a radioimmunoprecipitation assay (RIPA) buffer (containing 50 mM Tris-HCl pH 7.5, 150 mM NaCl, 5% Glycerol, 1 mM EDTA, 1% NP-40, 0.1% SDS and 0.25% Na-deoxycholate) and centrifuged. The enzymatic alkaline phosphatase activity in the supernatant of cell lysate was assayed by measuring the chromogenic p-nitrophenol formed from the enzymatic hydrolysis of p-nitrophenyl phosphate (the substrate) by light absorbance at 405 nm. The alkaline phosphatase activity was normalized to total protein, as measured by BCA protein assay. All experiments were performed in triplicates and means and standard deviations were calculated.
Subcutaneous mesenchymal progenitor (SMP) cells are potential osteoprogenitor cells within the subcutaneous connective tissue which can be induced to become osteoblast cells and adipocytes. Subcutaneous skin tissue containing adipose deposits was removed under sterile conditions and washed in PBS supplemented with 100 U/mL penicillin and 100 μg/mL streptomycin on ice. The tissue was then minced, and digested with 1 mg/ml collagenase type I and 0.5% Trypsin in 0.1% BSA for 70 minutes at 37° C. The digested tissue was centrifuged at 500 g for 10 min and the pellet was carefully collected after aspirating off the floating fat depots. After a second centrifugation at 500 g for 10 min, the cellular pellet was filtered through a 100 μm mesh filter to remove debris.
(§2) Cre recombinase adenovirus from Berk (˜10^12 pfu/ml) were diluted 1:50 in 100 μl PBS solution and injected into the subcutaneous region of the limbs of 4 weeks old mice. Six weeks, 3 months or 8 months after injection, the limbs were harvested from euthanized mice and fixed in 4% PFA overnight. Ectopic bone formation was analyzed by μCT and skeletal preparation. The Cre recombinase or GFP adenovirus (˜10^10 pfu/ml) was diluted 1:2000 to infect cells in vitro. Four hours later, fresh medium was added and 24 hours later, the medium was changed.

[2] = test system: Gnas^f/f mice after Ad-Cre injection (POH mouse model); assay: POH mouse model: Gnas^f/f mice with subcutaneous Ad-Cre injection, ectopic and endogenous bone by μCT
[3] = test system: WT mice with Achilles tendon puncture (ATP); assay: Achilles tendon puncture (ATP) injury-induced HO mouse model, μCT; format: in vivo; settings: for HO formation (ectopic bone volume): from the day of ATP, vs vehicle
Excerpt: For ATP mouse model, 4-week-old male mice were anesthetized. A 27-gauge needle was punctured into the Achilles tendon body from the lateral aspect percutaneously and this process was repeated six times at different parts of Achilles tendon body for each mouse. For sham operation, the needle was punctured through the skin without touching the Achilles tendons.
(§3) Mice were fixed overnight in 4% PFA and transferred to 70% ethanol, then analyzed by high-resolution μCT using a deskop μCT (Scanco Medical) according to recommended guidelines. The scanner was set at a voltage of 55 kV and a resolution of 12.3 μm per pixel. The images were reconstructed, analyzed for HO bone volume and endogenous bone mass. Briefly cortical bone parameters and cancellous bone microarchitecture from tibia were determined using a 7-μm isotropic voxel size. For ectopic bone, bone volume was measured. For cancellous bone, bone volume fraction (bone volume per tissue volume [BV/TV]) (percentage), trabecular number (Tb.N) (per millimeter), trabecular thickness (Tb.Th) (millimeter), trabecular separation (Tb.Sp) (millimeter) was analyzed. For cortical bone, cortical area fraction (Ct. BV/TV) (percentage), cortical bone density (Ct. BMD) (mgHA/cm3) were evaluated.

[4] = test system: ACVR1^R206H; ScxCre mice (FOP model); assay: FOP mouse model ScxCre; ACVR1^R206H, HO volume by μCT; format: in vivo; settings: VP 4 mg/kg/d IP, 5 days per week, starting at 6 weeks of age for 8 weeks
Procedure: The ACVR1^FlExR206H mice conditionally express ACVR1^R206H/+ knock-in alleles, were kindly provided by Dr. Aris Economides (Regeneron Pharmaceuticals, Inc.), mated with ScxCre mice, to yield ScxCre; ACVR1^FlEx206H/+ mice, which represent a FOP mouse model that develops spontaneous HO of tendons, ligaments, and joints. These mice were treated with Verteporfin (VP) (4 mg/kg/d intraperitoneal (IP) injection, 5 days per week) or an equal volume of PBS for 8 weeks, starting at 6 weeks of age. […]
as §3, with “The scanner was set at a voltage of 55 kV and a resolution of 12.3 μm per pixel.” left out

[5] = test system: Shh protein; assay: Shh protein levels by Western blotting in Gnas^f/f SMPs after Ad-Cre infection; format: cell-based, mouse; settings: 200 ng/ml for 7 days after Ad-Cre infection (FIG. 4B)
Procedure: as §2
Tissue or cell lysates were prepared using a lysis buffer [20 mM Tris (pH 7.4), 150 mM NaCl, 1% Tri-ton X-100, 1 mM EDTA, 1 mM EGTA, 2.5 mM sodium pyrophosphate, 1 mM β-glycerophosphate, 1 mM sodium orthovanadate] or RIPA buffer (Santa Cruz Biotechnology), respectively, containing protease inhibitor mixture (Roche). Total cell lysates were analyzed by Western blotting according to standard procedures.

[6] = test system: ACVR1^Q207D/+ SMPs; assay: ACVR1^Q207D/+ SMPs with Ad-Cre infection: ALP activity and QRT-PCR; format: cell-based, mouse; settings: VP 200 ng/ml for 7 days
Procedure: as §1
The skin was removed from the hindlimb covering the tibia and the subcutaneous tissue area (5 mm (1)×5 mm (w)×4 mm (h)) where the Ad-Cre were locally injected was isolated. Subcutaneous connective tissue and some muscle cells surrounding the ectopic bone would have been included. Total RNA was isolated first with Trizol (Invitrogen). […] PCR product accumulation was detected using Sybr green (Invitrogen; Platinum SYBR Green qPCR SuperMix-UDG). […]

[7] = Gnas^-/- SMP cells cultured with the inhibitors for 7 days (FIG. 11G)

Molecule | osteoblast differentiation (ALP) [1, 7] | HO (ectopic bone volume, μCT) ([2]; CT7001 10 mg/kg gavage every other day after Ad-Cre injection) | HO formation (ectopic bone volume) ([3]; THZ1 (1 mM) applied on the skin of the trauma area) | HO (ectopic bone volume, μCT) ([2]; THZ1 10 mg/kg IP injection 5 days a week after Ad-Cre injection) | tendon, ligament, and intra-articular HO (HO volume) [4] | osteoblast differentiation (ALP) ([1]; 200 ng/ml for 7 days after Ad-Cre infection (FIG. 4A)) | endogenous bone mass (tibia bones) ([3]; VP IP 2.5 mg/kg 5 days per week, VP treated vs control) | HO formation (ectopic bone volume) ([3]; VP higher dose 200 μg/ml applied on the skin of the trauma area) | HO formation (ectopic bone volume) ([3]; VP low dose 20 μg/ml applied on the skin of the trauma area) | Shh protein levels [5] | endogenous bone mass ([2]; 3 months of non-stop VP treatment (IP 2.5 mg/kg)) | endogenous tibia bone mass ([2]; 6 weeks after VP IP injection (2.5 mg/kg, 5 days per week), treated vs untreated) | HO after VP withdrawal ([2]; VP IP 2.5 mg/kg for 6 weeks from Ad-Cre injection, then no treatment, harvested 3 months after Ad-Cre) | already formed HO (ectopic bone volume) ([2]; VP IP 2.5 mg/kg started 6 weeks after Ad-Cre injection, 5 times per week for 6 weeks, vs untreated) | HO (ectopic bone volume, μCT) ([2]; VP IP injection (2.5 mg/kg) 5 days a week for 6 weeks, immediately after Ad-Cre injection) | HO (ectopic bone volume, μCT) ([2]; VP topically applied (0.2 mg/ml; 200 μg/ml) 5 days per week for 6 weeks, immediately after Ad-Cre injection) | osteoblast differentiation (ALP) [6] | expression of Yap and Hh target genes, Shh and Ihh ([6]; QRT-PCR)
CC(C)c1cnn2c(NCc3ccccc3)cc(NC[C@H]3CCNC[C@@H]3O)nc12 [CT7001] | reduced | reduced HO | – | – | – | – | – | – | – | – | – | – | – | – | – | – | – | –
CN(C)C/C=C/C(=O)Nc1ccc(C(=O)Nc2cccc(Nc3ncc(Cl)c(-c4c[nH]c5ccccc45)n3)c2)cc1 [THZ1] | reduced | – | completely blocked | reduced HO | – | – | – | – | – | – | – | – | – | – | – | – | – | –
Verteporfin [VP] | reduced | – | – | – | significantly reduced | decreased | no significant difference | completely blocked | reduced | decreased | not reduced | no significant change | significantly reduced | obviously reduced | more effective HO blockage | HO reduction | reduced | reduced
